# From patent US20240000767A1, “COMBINATION OF AN ALPHA2-ADRENOCEPTOR SUBTYPE C (ALPHA-2C) ANTAGONIST WITH A TASK1/3 CHANNEL BLOCKER FOR THE TREATMENT OF SLEEP APNEA” (Bayer Aktiengesellschaft, priority 2020, published 2024)
# Target: human ADRA2C receptor (Homo sapiens (Human), UniProt P18825)
# Experiment: In vitro activity assay to determine the inhibition of recombinant ADRA2C (CHO-K1 cells, aequorin bioluminescence)
# Type: cell-based
# Settings: inhibition of noradrenaline-induced bioluminescence signal; some mean values from multiple determinations; read-out: ARα2C IC50
# Experimental: B-2. In Vitro Activity Assay to Determine the Inhibition of Recombinant ADRA2C
# The human ADRA2C receptor belongs to the G protein(guanine-dependent protein)-coupled receptors, the main function of which is the transduction of signals into the interior of the cell.
# The investigations of the inhibition of the recombinant human ADRA2C receptors were carried out with stabily transfected CHO-K1 cells coexpressing the Gaq protein and the calcium-sensitive photoprotein aequorin. In this recombinant system, binding of the agonists noradrenaline to the ADRA2C receptor leads, after activation of a signal cascade, to calcium release from intracellular stores, which is detected by the intracellular calcium sensor aequorin as a bioluminescent signal. The method is described in detail in the reference below. [Wunder F., Kalthof B., Muller T., Hueser J. Functional Cell-Based Assays in Microliter Volumes for Ultra-High Throughput Screening. Combinatorial Chemistry & High Throughput Screening, Volume 11, Number 7, 2008, pp. 495-504(10). doi.org/10.2174/138620708785204054]
# The activity of the test substances was determined via their ability to inhibit the agonist-induced increase of the bioluminescence signal. The concentration which can block half of this signal increase is referred to as IC50. The IC50 value is calculated using the 4 parameter logistic function (Hill function):
# Top=upper threshold, Bottom=lower threshold, Slope=slope, IC50=turning point
# human ADRA2C receptor, sequence (P18825 whole entry): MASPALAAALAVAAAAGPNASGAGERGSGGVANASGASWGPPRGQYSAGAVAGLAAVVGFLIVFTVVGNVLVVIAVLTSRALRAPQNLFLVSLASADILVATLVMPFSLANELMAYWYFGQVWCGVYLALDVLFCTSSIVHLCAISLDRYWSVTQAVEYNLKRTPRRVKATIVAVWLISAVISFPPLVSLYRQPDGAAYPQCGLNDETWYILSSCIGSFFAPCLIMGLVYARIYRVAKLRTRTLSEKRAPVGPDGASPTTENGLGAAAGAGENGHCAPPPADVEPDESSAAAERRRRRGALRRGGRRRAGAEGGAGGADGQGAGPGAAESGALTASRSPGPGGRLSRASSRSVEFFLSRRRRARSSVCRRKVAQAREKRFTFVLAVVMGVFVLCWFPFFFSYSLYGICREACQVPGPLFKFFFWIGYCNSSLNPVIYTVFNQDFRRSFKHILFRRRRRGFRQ
row,SMILES,IC50 [nM]
1,"CCCC1CCCN(C2CCN(c3ncc(C(=O)NCc4ncc(F)cc4F)s3)CC2)C1 (racemic) [Example 121, rac-N-[(3,5-Difluoropyridin-2-yl)methyl]-2-(3-propyl[1,4′-bipiperidin]-1′-yl)-1,3-thiazole-5-carboxamide]",0.65
2,"O=C(NCc1ncc(F)cc1F)c1cnc(N2CCC(N3CCCC(CCF)C3)CC2)s1 (racemic) [Example 127, rac-Formic acid N-[(3,5-difluoropyridin-2-yl)methyl]-2-[3-(2-fluoroethyl)[1,4′-bipiperidin]-1′-yl]-1,3-thiazole-5-carboxamide]",8.4
3,"CC(NC(=O)c1cnc(N2CCC(N3CCC[C@@H](C)C3)CC2)s1)c1cc(F)ccc1F (single isomer, unassigned) [Example 46]",8.3
4,"CC(NC(=O)c1cnc(N2CCC(N3CCC[C@@H](C)C3)CC2)s1)c1cc(F)ccc1F (single isomer, unassigned) [Example 47]",25
5,"C[C@@H]1CCCN(C2CCN(c3ncc(C(=O)NCc4ncc(F)cc4F)s3)CC2F)C1 (single isomer, unassigned) [Example 51]",150
6,"C[C@@H]1CCCN(C2CCN(c3ncc(C(=O)NCc4ncc(F)cc4F)s3)CC2F)C1 (single isomer, unassigned) [Example 52]",6.7
7,"CC1CCCN(C2CCN(c3ncc(C(=O)NCc4ncc(F)cc4F)s3)CC2)CC1 (single isomer, unassigned) [Example 104, ent-N-[(3,5-Difluoropyridin-2-yl)methyl]-2-[4-(4-methylazepan-1-yl)piperidin-1-yl]-1,3-thiazole-5-carboxamide]",10
8,"CCOC1CCCN(C2CCN(c3ncc(C(=O)NCc4ncc(F)cc4F)s3)CC2)C1 (single isomer, unassigned) [Example 123, ent-N-[(3,5-Difluoropyridin-2-yl)methyl]-2-(3-ethoxy[1,4′-bipiperidin]-1′-yl)-1,3-thiazole-5-carboxamide]",260
9,"CCOC1CCCN(C2CCN(c3ncc(C(=O)NCc4ncc(F)cc4F)s3)CC2)C1 (single isomer, unassigned) [Example 124, ent-N-[(3,5-Difluoropyridin-2-yl)methyl]-2-(3-ethoxy[1,4′-bipiperidin]-1′-yl)-1,3-thiazole-5-carboxamide]",2.9
10,"O=C(NCc1ncc(F)cc1F)c1cnc(N2CCC(N3CCCC4(C3)CC4(F)F)CC2)s1 (single isomer, unassigned; ent-2) [Example 132, ent-2-[4-(1,1-Difluoro-5-azaspiro[2.5]octan-5-yl)piperidin-1-yl]-N-[(3,5-difluoropyridin-2-yl)methyl]-1,3-thiazole-5-carboxamide (enantiomer 2)]",0.71
11,"O=C(NCc1ncc(F)cc1F)c1cnc(N2CCC(N3CCc4ccccc4C3)CC2)s1 [Example 2, N-[(3,5-Difluoropyridin-2-yl)methyl]-2-[4-(3,4-dihydroisoquinolin-2(1H)-yl)piperidin-1-yl]-1,3-thiazole-5-carboxamide]",5.2
12,"Cc1nc(N2CCC(N3CCC[C@@H](C)C3)CC2)sc1C(=O)NCc1ncc(F)cc1F [Example 8, N-[(3,5-difluoropyridin-2-yl)methyl]-4-methyl-2-[(3R)-3-methyl[1,4′-bipiperidin]-1′-yl]-1,3-thiazole-5-carboxamide]",591
13,"C[C@@H]1CCCN(C2CCN(c3nc(C(=O)NCc4ncc(F)cc4F)cs3)CC2)C1 [Example 10, N-[(3,5-difluoropyridin-2-yl)methyl]-2-[(3R)-3-methyl[1,4′-bipiperidin]-1′-yl]-1,3-thiazole-4-carboxamide]",21.4
14,"C[C@@H]1CCCN(C2CCN(c3nc(C(F)(F)F)c(C(=O)NCc4ncc(F)cc4F)s3)CC2)C1 [Example 11, N-[(3,5-difluoropyridin-2-yl)methyl]-2-[(3R)-3-methyl[1,4′-bipiperidin]-1′-yl]-4-(trifluoromethyl)-1,3-thiazole-5-carboxamide]",140
15,"C[C@@H]1CCCN(C2CCN(c3nc(C(=O)NCc4ncc(F)cc4F)co3)CC2)C1 [Example 13, N-[(3,5-difluoropyridin-2-yl)methyl]-2-[(3R)-3-methyl[1,4′-bipiperidin]-1′-yl]-1,3-oxazole-4-carboxamide]",209
16,"Cc1oc(N2CCC(N3CCC[C@@H](C)C3)CC2)nc1C(=O)NCc1ncc(F)cc1F [Example 14, N-[(3,5-difluoropyridin-2-yl)methyl]-5-methyl-2-[(3R)-3-methyl[1,4′-bipiperidin]-1′-yl]-1,3-oxazole-4-carboxamide]",211
17,"C[C@@H]1CCCN(C2CCN(c3ncc(C(=O)NCc4cccc(C(F)(F)F)c4)s3)CC2)C1 [Example 19, 2-[(3R)-3-Methyl[1,4′-bipiperidin]-1′-yl]-N-[3-(trifluoromethyl)benzyl]-1,3-thiazole-5-carboxamide]",690
18,"C[C@@H]1CCCN(C2CCN(c3ncc(C(=O)NCc4ncccc4F)s3)CC2)C1 [Example 20, N-[(3-Fluoropyridin-2-yl)methyl]-2-[(3R)-3-methyl[1,4′-bipiperidin]-1′-yl]-1,3-thiazole-5-carboxamide]",110

# Continued by falling IC50, values first:
row,IC50 [nM],SMILES
1,1850,"CO[C@@H]1CCCN(C2CCN(c3ncc(C(=O)NCc4ncc(F)cc4F)s3)CC2)C1 [Example 15, N-[(3,5-difluoropyridin-2-yl)methyl]-2-[(3R)-3-methoxy[1,4′-bipiperidin]-1′-yl]-1,3-thiazole-5-carboxamide]"
2,590,"COCC1CCCN(C2CCN(c3ncc(C(=O)NCc4ncc(F)cc4F)s3)CC2)C1 (single isomer, unassigned) [Example 99, ent-N-[(3,5-Difluoropyridin-2-yl)methyl]-2-[3-(methoxymethyl) [1,4′-bipiperidin]-1′-yl]-1,3-thiazole-5-carboxamide]"
3,170,"Cc1sc(N2CCC(N3CCC[C@@H](C)C3)CC2)nc1C(=O)NCc1ncc(F)cc1F [Example 9, N-[(3,5-difluoropyridin-2-yl)methyl]-5-methyl-2-[(3R)-3-methyl[1,4′-bipiperidin]-1′-yl]-1,3-thiazole-4-carboxamide]"
4,107,"CCc1sc(N2CCC(N3CCC[C@@H](C)C3)CC2)nc1C(=O)NCc1ncc(F)cc1F [Example 12, N-[(3,5-difluoropyridin-2-yl)methyl]-5-ethyl-2-[(3R)-3-methyl[1,4′-bipiperidin]-1′-yl]-1,3-thiazole-4-carboxamide]"
5,37,"O=C(NCc1ncc(F)cc1F)c1cnc(N2CCC(N3CCCC(COCC(F)(F)F)C3)CC2)s1 (single isomer, unassigned) [Example 107, ent-N-[(3,5-Difluoropyridin-2-yl)methyl]-2-{3-[(2,2,2-trifluoroethoxy)methyl][1,4′-bipiperidin]-1′-yl}-1,3-thiazole-5-carboxamide]"
6,11,"O=C(NCc1ncc(F)cc1F)c1cnc(N2CCC(N3CCCC(COCC4CC4)C3)CC2)s1 (single isomer, unassigned; ent-2) [Example 116, ent-2-{3-[(Cyclopropylmethoxy)methyl][1,4′-bipiperidin]-1′-yl}-N-[(3,5-difluoropyridin-2-yl)methyl]-1,3-thiazole-5-carboxamide]"
7,4.3,"CC1CCCN(C2CCN(c3ncc(C(=O)NCc4ncc(F)cc4F)s3)CC2)CC1 (single isomer, unassigned) [Example 105, ent-N-[(3,5-Difluoropyridin-2-yl)methyl]-2-[4-(4-methylazepan-1-yl)piperidin-1-yl]-1,3-thiazole-5-carboxamide]"
8,1.9,"O=C(NCc1ncc(F)cc1F)c1cnc(N2CCC(N3CCCC4(C3)CC4(F)F)CC2)s1 (single isomer, unassigned; ent-2) [Example 131, ent-2-[4-(1,1-Difluoro-5-azaspiro[2.5]octan-5-yl)piperidin-1-yl]-N-[(3,5-difluoropyridin-2-yl)methyl]-1,3-thiazole-5-carboxamide]"
9,1.5,"O=C(NCc1ncc(F)cc1F)c1cnc(N2CCC(N3CCCC(OC4CC(F)(F)C4)C3)CC2)s1 (racemic) [Example 110, rac-2-{3-[(3,3-Difluorocyclobutyl)oxy][1,4′-bipiperidin]-1′-yl}-N-[(3,5-difluoropyridin-2-yl)methyl]-1,3-thiazole-5-carboxamide]"
10,0.95,"O=C(NCc1ncc(F)cc1F)c1cnc(N2CCC(N3CCCC(c4ccccc4)C3)CC2)s1 (racemic) [Example 133, rac-N-[(3,5-Difluoropyridin-2-yl)methyl]-2-(3-phenyl[1,4′-bipiperidin]-1′-yl)-1,3-thiazole-5-carboxamide]"
11,0.61,"O=C(NCc1ncc(F)cc1F)c1cnc(N2CCC(N3CCCC(COCC4CC4)C3)CC2)s1 (single isomer, unassigned; ent-2) [Example 115, ent-2-{3-[(Cyclopropylmethoxy)methyl][1,4′-bipiperidin]-1′-yl}-N-[(3,5-difluoropyridin-2-yl)methyl]-1,3-thiazole-5-carboxamide]"
12,0.5,"O=C(NCc1ncc(F)cc1F)c1cnc(N2CCC(N3CCCC(COCC(F)(F)F)C3)CC2)s1 (single isomer, unassigned) [Example 106, ent-N-[(3,5-Difluoropyridin-2-yl)methyl]-2-{3-[(2,2,2-trifluoroethoxy)methyl][1,4′-bipiperidin]-1′-yl}-1,3-thiazole-5-carboxamide]"
